System: CKD stage 5 subjects on hemodialysis (HD) or peritoneal dialysis (PD)
Experiment: Double-blind, placebo-controlled, multicenter studies of paricalcitol capsule in secondary hyperparathyroidism
Assay type: in vivo, human
Conditions: for duration of iPTH/PTH reduction: HD and PD subjects, 12-week treatment; for AE (adverse event) profile: versus placebo group
Experimental: Paricalcitol capsule is an oral formulation of paricalcitol injection, a vitamin D analog effective in the prevention and treatment of SHPT associated with chronic renal failure. Three doubleblind, placebo-controlled, multicenter studies were conducted to evaluate the safety and efficacy of paricalcitol capsule in CKD stage 5 subjects on hemodialysis (HD) or peritoneal dialysis (PD). After a 4-8 week washout period, 225 subjects (HD: 150, PD: 75) with iPTH≧300 pg/mL, serum Ca 8.0-10.5 mg/dL and Ca×P04<65 were randomized (1:1) and treated with paricalcitol capsule or placebo 3× weekly for 12 weeks. Initial doses were based on iPTH levels at baseline (initial mcg dose=iPTH/60). Subsequent dose adjustments of 2 mcg were based on the weekly Ca, Ca×P04, and iPTH results; dose increases occurred every 2 weeks and decreases once per week.

mean serum P04, maximum value (increased initially to the maximum, then decreased): 5.7 mg/dL | mean Ca (throughout 12-week treatment): under 10.0 mg/dL
SMILES: C[C@H](/C=C/[C@H](C)C(C)(C)O)[C@H]1CC[C@H]2/C(=C/C=C3C[C@@H](O)C[C@H](O)C3)CCC[C@]12C [paricalcitol]
subjects with 2 consecutive 30 decreases in iPTH (95/105 subjects, capsule 3x weekly for 12 weeks, initial mcg dose = iPTH/60, p<0.001 vs placebo): 90% | duration of iPTH/PTH reduction: sustained throughout the treatment | duration of iPTH/PTH reduction (listed as paricalcitol capsule): sustained reduction of PTH | mean iPTH reduction (by Week 3, 3x weekly dosing): 30% | influence of subject factors on efficacy (demographics, disease severity, baseline P04, phosphate binder type): not influenced by demographics, disease severity, baseline P04 or types of phosphate binder usage | AE (adverse event) profile: comparable between the groups | AE (adverse event) profile (listed as paricalcitol capsule): comparable to placebo

Source: patent publication US20060030549A1, “Paricalcitol(zemplar) capsule controls secondary hyperparathyroidism (SHPT) in CKD stage 5 patients” (priority 2003, published 2006)
